{"source": "patent US6699459B2", "about": "“Methods of treating lung inflammation” (The Board of Regents of the University of Texas System, priority 2001, dated 2004)", "key": {"RANTES [1]": {"test_system": "RANTES", "assay": "RSV-induced RANTES secretion in A549 cells (ELISA)", "type": "cell-based, human", "settings": "for RSV-induced RANTES production: A549 cells, 24 hours, ELISA; for RSV-induced RANTES secretion: concentration not given, data not shown", "procedure": "(§1) Cell culture and infection of epithelial cells with RSV. A549, human alveolar type II-like epithelial cells (ATCC, Manassas, Va.), were maintained in F12K medium containing 10% (v/v) fetal bovine serum (FBS), 10 mM glutamine, 100 IU/ml penicillin and 100 μg/ml streptomycin. Small alveolar epithelial cells (SAE) were obtained from Clonetics (San Diego, Calif.) and grown according to the company instructions. Cell monolayers were infected with RSV at multiplicity of infection (MOI) of 1 (unless otherwise stated), as described (17). An equivalent amount of a 20% sucrose solution was added to uninfected A549 cells, as a control. For the antioxidant experiments, cells were pretreated with the antioxidants for one hour and then infected in the presence of the antioxidants. Since BHA was diluted in ethanol, equal amounts of ethanol were added to untreated cells, as a control. Total number of cells, cell viability and viral replication, following antioxidant treatment, were measured by trypan blue exclusion and by plaque assay, respectively. RANTES ELISA. Immunoreactive RANTES was quantitated by a double antibody ELISA kit (DuoSet, R&D Systems, Minneapolis, Minn.) following the manufacturer's protocol."}, "STAT": {"test_system": "STAT", "assay": "RSV-induced STAT activation in alveolar epithelial cells", "type": "cell-based"}, "RANTES [2]": {"test_system": "RANTES", "assay": "RSV-induced RANTES secretion in SAE cells (ELISA)", "type": "cell-based, human", "settings": "20 mM, 24 hours, ELISA", "procedure": "as §1"}, "NOS-2": {"test_system": "NOS-2", "settings": "retinal epithelial cells, LPS/Interferon-γ; Faure et al. (40); cited from earlier work"}}, "data": [{"compound": "C[S+](C)[O-]", "note": "[DMSO, dimethylsulphoxide]", "values": [{"measurement": "RSV-induced RANTES production", "setting": "RANTES [1]; 2% (v/v)", "result": "significantly block"}]}, {"compound": "c1ccc2c(c1)[I+]c1ccccc1-2", "note": "[DPI]", "values": [{"measurement": "STAT activation following RSV infection", "setting": "STAT", "result": "greatly reduces (or abolishes)"}]}, {"compound": "COC(=O)[C@@H](N)CCCNC(=N)N[N+](=O)[O-]", "note": "[L-NAME]", "values": [{"measurement": "RSV-induced RANTES secretion", "setting": "RANTES [1]", "result": "no changes"}]}, {"compound": "CNC(=N)NCCC[C@H](N)C(=O)O", "note": "[L-NMMA]", "values": [{"measurement": "RSV-induced RANTES secretion", "setting": "RANTES [1]", "result": "no changes"}]}, {"compound": "CC(=O)N[C@@H](CS)C(=O)O", "note": "[NAC, N-acetyl cystein, reference compound]", "values": [{"measurement": "RSV-induced RANTES production", "setting": "RANTES [1]; 20 mM", "result": "significantly block"}, {"measurement": "RSV-induced RANTES production", "setting": "RANTES [2]", "result": "significantly reduced"}]}, {"compound": "S=C(S)N1CCCC1", "note": "[PDTC]", "values": [{"measurement": "NOS-2 induction", "setting": "NOS-2", "result": "able to inhibit"}]}, {"compound": "CN(C)C(=S)N(C)C", "note": "[TMTU, tetramethyl thiourea, reference compound]", "values": [{"measurement": "RSV-induced RANTES production", "setting": "RANTES [1]; 20 mM", "result": "significantly block"}, {"measurement": "RSV-induced RANTES production", "setting": "RANTES [2]", "result": "significantly reduced"}]}]}
